Results on one molecule are retold here after PMC9102502, “The Influence of Selected Antipsychotic Drugs on Biochemical Aspects of Alzheimer’s Disease” (International Journal of Molecular Sciences, 2022).

In data set [1] the target is T1, human erythrocyte acetylcholinesterase (Homo sapiens, UniProt P22303).
T1 construct: solution of hemolyzed erythrocytes diluted 400-fold; from tissue; host or cells: hemolyzed erythrocytes from blood of healthy human donors
Nature of the data set: AChE inhibition, modified Ellman's method. It counts as biochemical. (In general: In Ellman's method for cholinesterases, released thiocholine reacts with DTNB.)

In data set [2] the target is T2, human plasma butyrylcholinesterase (Homo sapiens, UniProt P06276).
T2 construct: The solution of plasma 200-fold diluted with 0.9% NaCl; from tissue; host or cells: citrated plasma from blood of healthy human donors
T2 sequence (P06276 29-602): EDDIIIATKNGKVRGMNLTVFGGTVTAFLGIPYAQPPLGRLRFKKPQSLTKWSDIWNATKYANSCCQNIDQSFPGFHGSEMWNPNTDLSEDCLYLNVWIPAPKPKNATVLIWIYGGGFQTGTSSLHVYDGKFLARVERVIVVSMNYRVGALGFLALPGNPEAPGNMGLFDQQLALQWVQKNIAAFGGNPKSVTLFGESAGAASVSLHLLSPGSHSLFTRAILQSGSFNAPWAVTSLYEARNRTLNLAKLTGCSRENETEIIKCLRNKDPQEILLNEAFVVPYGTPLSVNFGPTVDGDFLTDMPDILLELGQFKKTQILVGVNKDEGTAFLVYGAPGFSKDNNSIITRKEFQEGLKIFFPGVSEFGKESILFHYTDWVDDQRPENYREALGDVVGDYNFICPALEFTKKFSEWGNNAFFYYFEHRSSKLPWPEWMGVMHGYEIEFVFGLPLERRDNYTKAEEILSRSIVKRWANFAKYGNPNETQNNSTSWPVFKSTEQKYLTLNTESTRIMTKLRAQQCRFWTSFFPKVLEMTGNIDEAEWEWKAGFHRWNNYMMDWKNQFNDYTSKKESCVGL
As to the kind of experiment: BuChE inhibition, modified Ellman's method. It counts as biochemical. As to conditions: experimental data; mean ± SD, n = 6–9; read-out: IC50 BuChE.

Data set [3] has as its target T3, recombinant human β-amyloid (1–42) (Homo sapiens, UniProt P05067).
T3 construct: recombinant human β-amyloid (1–42; ultrapure); purchased Sigma-Aldrich (St. Louis, MO, USA)
As to the kind of experiment: Beta-amyloid aggregation, Thioflavin T fluorescence. It counts as biochemical. The following applies: 24 and 48 h; both tested concentrations. In outline: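 Aβ42 (DMSO stock, pre-warmed 15 min at 37 °C) at 20 μmol/L final incubated with antipsychotics at TPC and 1/2 × TPC, with 5 µmol/L ThT added. Fluorescence (Ex/Em 440/484 nm, room temperature) read at 10, 30, 60, 90 min, 24 and 48 h; peptide-only control set as 100% aggregation.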

For data set [4], the system named is human erythrocytes. The following applies: 80 μg/L, AAPH 50 mmol/L. Here is the method:
The blood samples were centrifuged (3000 rpm, 10 min, 20 °C, Micro 22 R centrifuge, Hettich Zentrifugen, Tuttlingen, Germany) to separate erythrocytes from the plasma and washed three times with 0.9% saline (NaCl). […] The erythrocytes were suspended in 0.9% saline. As control of basal hemolysis, erythrocytes were incubated with 0.9% NaCl. For total hemolysis control erythrocytes were incubated with 2.0% v/v Triton X-100. Incubation with Triton X-100 and K4[Fe(CN)6] (at concentration 50 g/L) was performed to control methemoglobin (MetHb) formation. Moreover, an antioxidant control containing ascorbic acid (AA) at a concentration of 10 µg/mL was prepared, while AAPH at a concentration of 50 mmol/L was an oxidizing agent. Antipsychotics at concentrations equaling their maximum therapeutic plasma concentrations (TPCmax), as well as 5-fold higher (5 × TPCmax) and 5-fold lower than TPCmax (1/5 × TPCmax), and the oxidizing agent AAPH at a concentration of 50 mmol/L, were added to 2% RBC suspension. Controls and tested samples were incubated at 37 °C. […] The percentage of hemolysis was calculated with the following formula:Hemolysis (%) = (Asample/Atotal hemolysis) × 100%(1) where Asample—absorbance of the test sample; Atotal hemolysis—the absorbance of the reference sample with 2% Triton X solution, corresponding to complete hemolysis.

In data set [5] the test system is human erythrocytes. As to the kind of experiment: Methemoglobin formation in RBC with AAPH. Type of data set: cell-based. The following applies: 5 h, AAPH control 61.9%. The procedure:
The blood samples were centrifuged (3000 rpm, 10 min, 20 °C, Micro 22 R centrifuge, Hettich Zentrifugen, Tuttlingen, Germany) to separate erythrocytes from the plasma and washed three times with 0.9% saline (NaCl). […] The erythrocytes were suspended in 0.9% saline. As control of basal hemolysis, erythrocytes were incubated with 0.9% NaCl. For total hemolysis control erythrocytes were incubated with 2.0% v/v Triton X-100. Incubation with Triton X-100 and K4[Fe(CN)6] (at concentration 50 g/L) was performed to control methemoglobin (MetHb) formation. Moreover, an antioxidant control containing ascorbic acid (AA) at a concentration of 10 µg/mL was prepared, while AAPH at a concentration of 50 mmol/L was an oxidizing agent. Antipsychotics at concentrations equaling their maximum therapeutic plasma concentrations (TPCmax), as well as 5-fold higher (5 × TPCmax) and 5-fold lower than TPCmax (1/5 × TPCmax), and the oxidizing agent AAPH at a concentration of 50 mmol/L, were added to 2% RBC suspension. Controls and tested samples were incubated at 37 °C. […] For each measurement, 0.5 mL samples were taken from incubated Eppendorf tubes and centrifuged (3000 rpm, 10 min). […] The percentage of hemolysis was calculated with the following formula:Hemolysis (%) = (Asample/Atotal hemolysis) × 100%(1) where Asample—absorbance of the test sample; Atotal hemolysis—the absorbance of the reference sample with 2% Triton X solution, corresponding to complete hemolysis.

Data set [6] deals with T4, BuChE (Homo sapiens, UniProt P06276). As to the kind of experiment: Synergism of antipsychotics with donepezil/rivastigmine (binary mixtures), BuChE.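 Further: combination index derived by median-effect analysis of combined drug effects on the cholinesterase, with values below 1 meaning synergism, exactly 1 additivity and above 1 antagonism.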 As to conditions: ComboSyn.
T4 sequence (P06276 29-602): as above
From the text: In turn, the concentrations of antipsychotics were constant in every measurement, and were chosen on the basis of estimated therapeutic plasma concentrations.
Automatic simulation of synergism and antagonism at all doses or effect levels is possible by computer software, based on algorithms. Calculation of the combination index (CI) and isobologram analyses enable to quantitatively determine drug interactions, where CI < 1, =1 and >1 indicate synergism, additive effect and antagonism, respectively. […] The software also allowed us to display the dose–effect curve, the median–effect plot and the dose-reduction index (DRI) plot [36].
For data set [7], the target named is T4, BuChE. As to the kind of experiment: Kinetic parameters of enzymatic reaction (Hanes–Woolf), BuChE. Type of data set: biochemical. Details: The solution of plasma 200-fold diluted with 0.9% NaCl; from tissue; host or cells: citrated plasma from blood of healthy human donors. Here is the method: Kinetic parameters were obtained on the basis of three individual experiments carried out on different biological materials. For this purpose, various concentrations of substrates (ATC and BTC) were used in experiments. The type of inhibition and kinetic parameters of enzymatic reactions were obtained by linear regression using the Hanes–Woolf equations.
AChE SI (selectivity index) was calculated by using the following formula: SI = IC50 of BuChE/IC50 of AChE. However, BuChE SI was defined as IC50 of AChE/IC50 of BuChE. Maximal velocity (Vmax) and the Michaelis constant (Km) were calculated with the use of linear regression—according to the Hanes–Woolf plot.

The structures appear in SMILES notation. “And” between values parts separate entries of the source, which are not always exact repeats. Equal values may be shown once. Read-outs that look alike come from different tables or passages of the source.

T1 sequence (P22303 32-617 isoform P22303-2 limits assumed): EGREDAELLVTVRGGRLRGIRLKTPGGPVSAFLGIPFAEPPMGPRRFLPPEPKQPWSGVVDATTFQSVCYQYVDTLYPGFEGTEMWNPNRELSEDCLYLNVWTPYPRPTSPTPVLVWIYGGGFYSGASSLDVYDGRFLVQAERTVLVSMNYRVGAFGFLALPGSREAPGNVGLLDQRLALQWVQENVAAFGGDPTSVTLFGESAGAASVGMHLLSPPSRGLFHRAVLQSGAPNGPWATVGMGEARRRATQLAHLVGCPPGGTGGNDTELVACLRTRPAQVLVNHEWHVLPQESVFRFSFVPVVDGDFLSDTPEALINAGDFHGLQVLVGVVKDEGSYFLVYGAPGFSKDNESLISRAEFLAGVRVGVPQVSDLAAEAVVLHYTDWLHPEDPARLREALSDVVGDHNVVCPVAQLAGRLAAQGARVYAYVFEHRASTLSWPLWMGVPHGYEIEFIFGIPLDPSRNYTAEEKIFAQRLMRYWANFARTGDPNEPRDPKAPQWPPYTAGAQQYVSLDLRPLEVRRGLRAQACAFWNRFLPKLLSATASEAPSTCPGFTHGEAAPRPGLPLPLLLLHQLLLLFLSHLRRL
T3 sequence (P05067 672-713 limits assumed): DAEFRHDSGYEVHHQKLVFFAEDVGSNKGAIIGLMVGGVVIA

On to `OCCOCCN1CCN(C2=Nc3ccccc3Sc3ccccc32)CC1` [Quetiapine, quetiapine], for which the AChE reaction velocity in data set [1] (over 4000 µg/L (two ends of the printed span), control 0.264 ± 0.014 A/min) was 0.257 ± 0.016 A/min and 0.241 ± 0.013 A/min. The figures for the IC50 in data set [1] (theoretical values calculated on the basis of extrapolated plots) and in data set [2] were more than 100 µM and 6.08 ± 1.63 µM, respectively. In data set [3], the “effect on Aβ aggregation after a longer incubation time” value is given as “substantially inhibit”. In addition, the “RBCs hemolysis with AAPH” value with human erythrocytes [4] (5 h, AAPH control 53.4%) was found to be 23.9%; with human erythrocytes [4] (24 h, AAPH control 45.9%) it was 51.9%. Further, the “methemoglobin formation with AAPH” value in the data set on human erythrocytes [5] (80 μg/L) was 17.1%; with human erythrocytes [5] (400 μg/L), 18.8%. The “CI (combination index), BuChE” value came out at 0.64 at BuChE [6] (donepezil 2 μmol/L + antipsychotic at TPCmax); 0.64 at BuChE [6] (donepezil 5 μmol/L + antipsychotic at TPCmax); 0.71 on BuChE [6] (donepezil 10 μmol/L + antipsychotic at TPCmax); 0.75 on BuChE [6] (donepezil 20 μmol/L + antipsychotic at TPCmax); 0.85 at BuChE [6] (donepezil 50 μmol/L + antipsychotic at TPCmax); 2.24 at BuChE [6] (rivastigmine 0.05 μmol/L + antipsychotic at TPCmax). Besides, at BuChE [6] (rivastigmine 0.1 μmol/L + antipsychotic at TPCmax), the “CI (combination index), BuChE” value was 1.42. The “Vmax(i) BuChE” value at BuChE [7] (compound at its IC50) stood at 0.138 ± 0.058 A/min; on BuChE [7] (compound at ½ IC50), 0.239 ± 0.026 A/min. Moreover, the “type of inhibition of BuChE” value at BuChE [7] (from Km(i), Vmax(i) vs Km, Vmax, mixed inhibition) was “same type of inhibition”.
